No end group written: not given here. *: point of attachment. Myristoyl = CCCCCCCCCCCCCC(=O)*
Target: T1, Gα13 binding to β3 (Homo sapiens, UniProt P05106+Q14344)
T1 construct: Proteins from platelet lysates were immunoprecipitated with control IgG or antibody to Gα13; The integrin αIIbβ3 was co-immunoprecipitated by anti-Gα13 antibody, but not control IgG, from platelet lysates; endogenous in cells; host or cells: washed human platelets (lysates)
T1 sequence (Q14344 1-377): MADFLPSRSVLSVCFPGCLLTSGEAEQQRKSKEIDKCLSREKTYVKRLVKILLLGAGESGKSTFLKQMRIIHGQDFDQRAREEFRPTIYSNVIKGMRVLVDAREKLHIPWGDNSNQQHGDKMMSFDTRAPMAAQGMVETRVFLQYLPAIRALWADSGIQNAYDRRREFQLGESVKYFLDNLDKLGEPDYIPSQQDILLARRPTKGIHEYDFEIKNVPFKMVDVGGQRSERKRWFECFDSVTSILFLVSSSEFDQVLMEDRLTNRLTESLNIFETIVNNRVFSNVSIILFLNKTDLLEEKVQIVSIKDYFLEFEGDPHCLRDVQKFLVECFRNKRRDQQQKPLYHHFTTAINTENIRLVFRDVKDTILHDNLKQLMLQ
T1 sequence (P05106 27-788): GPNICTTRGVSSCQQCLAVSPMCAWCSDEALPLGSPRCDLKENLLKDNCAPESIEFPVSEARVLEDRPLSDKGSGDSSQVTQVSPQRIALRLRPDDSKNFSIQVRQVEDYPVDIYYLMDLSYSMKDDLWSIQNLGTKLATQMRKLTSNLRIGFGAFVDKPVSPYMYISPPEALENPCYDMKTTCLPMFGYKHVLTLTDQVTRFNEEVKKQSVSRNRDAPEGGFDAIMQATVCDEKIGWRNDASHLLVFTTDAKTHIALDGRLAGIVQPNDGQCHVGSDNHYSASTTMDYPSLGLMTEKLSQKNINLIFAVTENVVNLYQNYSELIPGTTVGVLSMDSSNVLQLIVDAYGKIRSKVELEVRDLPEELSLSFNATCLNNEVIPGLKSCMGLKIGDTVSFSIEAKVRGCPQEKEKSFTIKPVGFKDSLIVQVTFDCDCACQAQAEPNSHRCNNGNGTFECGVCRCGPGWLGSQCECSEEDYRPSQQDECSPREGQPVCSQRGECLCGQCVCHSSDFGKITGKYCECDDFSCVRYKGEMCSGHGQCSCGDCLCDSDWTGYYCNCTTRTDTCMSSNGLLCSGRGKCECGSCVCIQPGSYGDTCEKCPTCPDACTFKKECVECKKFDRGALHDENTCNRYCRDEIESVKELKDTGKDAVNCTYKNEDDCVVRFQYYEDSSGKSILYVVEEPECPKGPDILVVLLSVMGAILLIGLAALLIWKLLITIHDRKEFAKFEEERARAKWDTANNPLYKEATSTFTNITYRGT
Experiment: Co-immunoprecipitation of β3 with Gα13 from platelet lysates
Settings: for co-immunoprecipitation between Gα13 and β3: platelets/platelet lysates, 500 μM peptide
Method: As previously described (S7), cell lysates were incubated with 2 μg/ml of D57 (antibody to integrin αIIbβ3), LJP3 (antibody against GPIb), or mouse IgG, and further incubated with protein G-conjugated Sepharose beads. Cell lysates were also incubated with rabbit anti-Gα13 IgG antibody (1.5 μg/ml) or an equal amount of rabbit IgG and further incubated with protein A-conjugated Sepharose beads. After 3-6 washes with lysis buffer, immunoprecipitates were analyzed by SDS-polyacrylamide gel electrophoresis and Western blots with antibodies against β3 (MAb15), GPIb (anti-IbαC (S8)) or Gα13. In some experiments, 1 μM GDP, 1 μM GTPγS or 30 μM AlF4^− were added to the reaction to assess the effect of Gα13 activation on integrin binding. In other experiments, 250 μM mSRI or scrambled control peptide was incubated with platelet lysates prior to immunoprecipitation. GST bead pull down analysis was previously described (S7). Purified Gα13 was incubated with glutathione beads-bound to GST, GST-β1CD or GST-β3 CD at 4° C. overnight. Bead-bound proteins were analyzed by immunoblotting. For GST-β3CD cDNA construction, integrin-β3 cytoplasmic domain (716-762) cDNA was generated by PCR and cloned into pGEX-4T2 vector using Bam HI and Xho I restriction sites. The forward primer is 5′-[…]-3′ (SEQ ID NO: 48); the reverse primer is 5′-[…]-3′ (SEQ ID NO: 49). For GST-I31CD cDNA construction, β1 cytoplasmic domain (752-798) cDNA was amplified by PCR and cloned into pGEX-4T1 vector using EcoRI and Xho I restriction sites. The primer sequences are: (1) forward: 5′-[…]-3′ (SEQ ID NO: 50); (2) reverse: […]-3′ (SEQ ID NO: 51). GST, GST-β1CD and GST-β3CD were purified from BL21 (DE3) E. coli using glutathione-conjugated beads.
Cell lysates were incubated with rabbit anti-Gα13 IgG (1.5 μg/ml), anti-integrin β3 rabbit serum (5 μl/ml) or an equal amount of rabbit IgG or pre-immune serum at 4° C. overnight, and subsequently with protein A-conjugated Sepharose beads for 1 hour. For the integrin β3 clustering experiment, human platelets (3×10^8) were stimulated with 0.025 U/ml α-thrombin for 2 minutes at room temperature (to avoid platelet aggregation) with or without 2 mM RGDS, then incubated with 5 μl anti-integrin β3 8053 rabbit serum at room temperature for 1 hour, and 5 μg goat anti-rabbit secondary antibody for another 1 hour. Platelets were then solubilized in modified RIPA Buffer. For the un-clustering control and pre-immune serum control, cells were solubilized in modified RIPA Buffer first, than incubated with 5 μl 8053 serum or pre-immune serum. After 3-6 washes with lysis buffer, immunoprecipitates were analyzed by SDS-polyacrylamide gel electrophoresis and Western blots using antibodies against β3, talin, or Gα13. In some experiments, 500 μM control or inhibitor peptides, mP5, mP7 and mP13 were incubated with platelet lysates prior to immunoprecipitation, or 2 mM RGDS was added into washed human platelets before stimulation by 0.025 U/ml α-thrombin. GST bead pull down analysis was previously described^8. Purified Gα13 or MBP-talin head were incubated with glutathione beads-bound to GST or GST-β3CD at 4° C. overnight. Bead-bound proteins were analyzed by immunoblotting.

Substance | co-immunoprecipitation between Gα13 and β3 | Gα13 binding to β3 (co-immunoprecipitation of β3 with Gα13) (platelet lysates, 250 μM peptide)
Myr-EEERA [mP5] | inhibited | –
Myristoyl-KFEEERA [mP7] | inhibited | –
Myristoyl-KFEEERARAKWDT [mP13] | inhibited | –
Myristoyl-LLARRPTKGIHEY [mSRI] | – | inhibited
